# “Also recorded” adds a separate entry of the source.
# Assays:
# [1] = tested on: neurogenesis in rat hippocampus; assay: Detection of neurogenesis in rat hippocampus by BrdU labeling (DAB immunohistochemistry); format: in vivo; details: under the test conditions of the embodiments, same dose
# Description: Example 36: Detection of Neurogenesis in Rat Hippocampus by BrdU (5-Bromo-2-deoxy Uridine, 5-bromodeoxyuridine) Labeling
# Experimental animals: 10-week-old SD male rats having a body weight of about 300 g are purchased. The rats are used in experiments one week after being adapted to the environment in an animal room. Experimental groups: control group, drug group. 2-3 rats per group. Experimental reagent: injection oil is used to dissolve a compound to be tested. Rates in the control group are injected with the same dose of dissolving oil.
# Test method: intraperitoneal injection is carried out 28 days at the injection dose of 0.5 ml-1 ml each time. Dose: 4 mg/Kg.
# 1) marker injection: BrdU (dissolved in sterile saline solution at a concentration of 10 mg/mL) solution is injected intraperitoneally into rats. (For rats with different body weights, the injection dose of BrdU is 50 mg·Kg^−1, injection is carried out twice every 2 hour; the intraperitoneal injection 24 hours before anesthesia ends.
# 2) Anesthesia: Anesthesia is performed by intraperitoneal injection of sodium pentobarbital solution into rats. (For rats with different body weights, the injection dose of sodium pentobarbital is usually 70 mg·Kg^−1.)
# 3) Cardiac perfusion: cardiac perfusion with normal saline is performed according to a general method.
# 4) Taking of brain tissues: The heads of the rats are separated from the bodies with surgical forceps and scissors, and then the muscles and membrane tissues at the top of the skulls are removed and brains are then gently peeled from the skulls. The separated brains are soaked in 4% paraformaldehyde for 24-48 hours.
# 5) Dehydration of brain tissues: the fixed tissues are soaked with a 20% sucrose PBS solution for more than 72 hours, and then the brain tissues are soaked with a 30% sucrose PBS solution for more than 72 hours.
# 6) Frozen section: the brain tissues are cut into […] thick sections by a general coronal section procedure.
# 7) DAB immunohistochemistry step: DNA denaturation is carried out and the sections are transferred to a 24-well plate (pH 7.4) perfused with 0.1 M PBS. The brain sections are incubated with 1% H2O2 for 30 minutes to remove […]; the sections are then treated with a 2M HCl solution for 30 minutes at room temperature to denature them. After completion of the denaturation, the brain sections are immersed in a 0.1 M sodium borate (pH 8.5) solution for 5 minutes and rinsed twice; the brain sections are incubated in 0.5% PBST for 1 hour at room temperature, and then are blocked for 1 hour with a serum blocking solution on a shaker at room temperature, and the serum blocking solution is from the same source as a secondary antibody; the samples are treated on the shaker with a BrdU primary antibody overnight at 4° C., and the BrdU primary antibody is diluted with the blocking solution; the samples are incubated with the biotinylated secondary antibody IgG for 2 hours at room temperature; a C (ABC kit) solution is incubated at room temperature for 2 hours; finally, after 3 to 5 minutes of color development by the DAB kit, the samples are mounted by using a PVP mounting medium and then dried, and finally the experimental results are detected under a microscope.
# The dose-effect relationships of different compounds is further tested according to the method of Example 36, and the compounds include WS-54 (E-4-isobutyrylamino-3′,4′-methylenedioxy-stilbene), WS-69 (E-4-Methylsulfonamino-3′,4′-methylenedioxy-stilbene), WS-70 (E-4-Benzamino-3′,4′-methylenedioxy-stilbene), and WS-74 (E-4-Cyclopropylformamino-3′,4′-methylenedioxy-stilbene).
# [2] = tested on: neurogenesis in rat hippocampus; assay: BrdU and NeuN fluorescence double staining; format: in vivo
# Description: Example 37: Experimental Procedure of BrdU and NeuN Fluorescence Double Staining
# The samples are obtained in the same manner as an Example 34. First, the DNA denaturation is performed, and the sections are transferred to a HCl solution perfused with 2 N, and treated at 37° C. for 60 minutes to be denatured. After completion of the denaturation, the brain sections are immersed in a 0.1 M sodium borate (pH 8.5) solution for 5 minutes and rinsed twice; the brain sections are then blocked for 1 hour with a serum blocking solution on a shaker at room temperature, and the serum blocking solution is from the same source as a secondary antibody; the samples are treated on the shaker with BrdU (1:500, Millipore) and NeuN (1:500, Abcam) primary antibodies overnight at 4° C., and the primary antibodies are diluted with the blocking solution; the samples are incubated with fluorescent secondary antibodies goat anti-mouse and goat anti-rabbits at room temperature (1:50, Zhongshanjinqiao) for 2 hours at room temperature in a dark place; the samples are mounted by using a fluorescent anti-quenching PVP mounting medium and then dried, and finally the experimental results are detected under a microscope. Control group and drug group (low dose L, 2 mg/Kg; medium dose M, 4 mg/Kg).
# [3] = tested on: HEK293; assay: In vitro cytotoxicity experiment (MTT, cell survival); format: cell-based; details: HEK293, in vitro test, FIG. 3
# Description: Example 35: In Vitro Cytotoxicity Experiment the Experimental Cell Line is HEK293
# Cells are cultured in a 96-well plate at a cell concentration of 5000/well. After 24 hours of cell culture, the drug treatment is performed and the experiment is carried out on two groups: the control group is added with DMSO with the same concentration as that for the experimental group; in the experimental group, each compound is tested at three doses of low, medium and high doses (100 μM; 500 μM; 1000 μM), and five parallels are tested at each dose; in the blank group, a complete medium is added with a compound to be tested with the same concentration as that for the experimental group. Constant temperature incubation is carried out for 24 h in a CO2 incubator, MTT with a final concentration of 0.5 mg/mL is then added; 4 hours later, 200 μL of DMSO solution is added, and the absorbance is measured at 490 nm. The cell survival is calculated according to the absorbance; Survival %=(Average concentration−Blank concentration)/(Average control concentration−Blank concentration)*100%.
# Reference is made to FIG. 3 which illustrates an in vitro cytotoxicity test chart of a novel stilbene derivative according to an example of embodiments of the present invention.
smiles,measurement,setting,value
"CC(=O)Nc1ccc(/C=C/c2ccc3c(c2)OCO3)cc1 [WS-6, E-4-acetylamino-3′,4′-methylenedioxy-stilbene]",neurogenesis activity (in words),[1],better neurogenesis activity
same,dose relationship of NeuN+BrdU+ spots,[2]; 4 mg/Kg over 2 mg/Kg,can further enhance neurogenesis at the dose of 4 mg/Kg over the dose of 2 mg/Kg
same,BrdU and NeuN double staining: neurogenesis,"[2]; low dose 2 mg/Kg and medium dose 4 mg/Kg, FIG. 9",can promote neurogenesis
same,neuronal cytotoxicity / neurotoxicity (in words),[3],further reduced in neurotoxicity as compared with WS-61; also recorded: greatly reduced
